The test system of this series is HG23 cells. Briefly: cell cytotoxicity assay kit. The series is classed as cell-based. As to conditions: TD50.

Turning to `O=C(CN(Cc1ccccc1)S(=O)(=O)NCc1cccc(Oc2ccccc2)c1)NCCN1CCOCC1` [Compound 11b, 2-(Benzyl(N-(3-phenoxybenzyl)sulfamoyl)amino)-N-(2-morpholinoethyl)acetamide], the “higher toxicity versus compound 11a” value is ~ 8 fold.

(Values after PMC3799806 (Bioorganic & medicinal chemistry, 2012).)
